Source: US20210301306A1 (priority 2018, published 2021)

System: normally fed mice
Assay: Feeding behavior in normally fed mice injected into the stomach wall with vector, then given CNO
Assay type: in vivo
Conditions: 1 mg/kg CNO, FIGS. 9A-9E
Experimental: FIG. 3 depicts the response of normally fed […] mice injected into the stomach wall with retroAAV/rh10 expressing a DREADD (hD3q) which activates neurons in response to 1 mg/kg CNO. Animals injected with retroAAV/rh10 expressing the marker gene mCherry fed normally in response to CNO.

C[N+]1([O-])CCN(C2=Nc3cc(Cl)ccc3Nc3ccccc32)CC1 [CNO, clozapine-N-oxide]
long term feeding behavior: long term stability of reduced feeding behavior
